The subject of one test is MRSA strains. In words: In vitro time-kill kinetics assay. It counts as cell-based, Staphylococcus aureus. The conditions noted are these: all MRSA strains; peptide at MIC; after 2 hours' incubation, throughout observation period. As to the method:
(§1) The MIC is indicated by the concentration interval, which comprise the upper growth limit and the first concentration which could not support visible bacterial growth after incubation. The MBC was defined as the lowest concentration at which no viable colonies were observed. The peptide concentrations were 128.0, 64.0, 32.0, 16.0, 8.0, 4.0, 2.0 and 1 μM. For the time-kill studies against the ATCC and MDR strains, the bacteria were cultured in BHI broth until the late log growth phase at 37° C. The bacterial suspensions, containing about 10^6 CFU/ml (adjusted by the spectrophotometer to OD600 nm), were diluted 1:100 in PBS1× and then incubated at 37° C. with or without the peptide, selected at concentrations corresponding to 1, 2 and 4×MIC (as determined above). At baseline and 1, 2, 3 and 5 hours after incubation, a portion of each sample was harvested, diluted in series in PBS1× and seeded on BHI agar. The plates were incubated for […] at 37° C., and the viable bacteria count was conducted by the CFU method. All the data were expressed as mean±SD of three independent experiments.

Test [1] relates to S. aureus ATCC 6538 (ATCC reference strain). The test can be described thus: In vitro time-kill kinetics assay. Format: cell-based, Staphylococcus aureus. The conditions noted are these: peptide at MIC, after 2 hours' incubation. As to the method:
as §1

Test [2] relates to P. aeruginosa ATCC 27853. The test can be described thus: In vitro time-kill kinetics assay. It counts as cell-based, Pseudomonas aeruginosa. How it is done:
as §1

Test [3] concerns P. aeruginosa MDR 2 strain. In words: In vitro time-kill kinetics assay. It counts as cell-based, Pseudomonas aeruginosa. How it is done: as §1
Test [4] deals with E. coli ATCC 13762 (ATCC reference strain). The test can be described thus: In vitro time-kill kinetics assay. It counts as cell-based, Escherichia coli. The conditions noted are these: peptide at MIC, after 2 hours' incubation. As to the method:
as §1

The test system of the next test is ESBL strains of E. coli. The test can be described thus: In vitro time-kill kinetics assay. It counts as cell-based, Escherichia coli. Particulars: peptide at MIC, after 2 hours' incubation, throughout observation period. As to the method:
as §1

The test system of another test is A. baumannii MDR 2. In words: In vitro time-kill kinetics assay. It counts as cell-based, Acinetobacter baumannii complex. How it is done: as §1
Test [5] concerns P. aeruginosa ATCC 27853. Format: cell-based, Pseudomonas aeruginosa. As to the method:
(§2) The antimicrobial activity of peptide γ2 was evaluated versus Pseudomonas aeruginosa ATCC 27853, Escherichia coli ATCC 13762 and Staphylococcus aureus ATCC 6538, and versus multidrug-resistant (MDR) clinical isolates of Methicillin-Resistant Staphylococcus aureus (MRSA), extended-spectrum β-lactamase (ESBL)-producing E. coli, P. aeruginosa and Acinetobacter baumannii complex. The isolates were identified by mass spectrometry using the MALDI (matrix-assisted laser desorption/ionisation) mass spectrometer and the biochemical phenotyping method in a VITEKR 2 bioMérieux system (bioMérieux Italia S.p.a., Bagno a Ripoli, Florence, Italy), according to the manufacturer's instructions. The antibiotic susceptibility profile was evaluated with the VITEKR 2 bioMérieux System. The microorganisms were cultured in broth and agar at 37° C. The media used were BD Brain Heart Infusion broth (BHI) (BD, Franklin Lakes, NJ, USA) and BHI agar (OXOID, Basingstoke, Hampshire, UK), BD Trypticase Soy agar with 5% sheep's blood and MacConkey agar (OXOID, Basingstoke, Hampshire, UK). The isolates were stored frozen at −80° C. in BHI broth supplemented with 10% (v/v) glycerol (Carlo Erba Reagents, Milan, Italy) until use, and the work cultures were activated in the respective broths at 37° C. for 15-18 h.
(§3) Assays of the antibacterial activity of peptide γ2, in both reduced and oxidised form, were conducted against P. aeruginosa ATCC 27853, E. coli ATCC 13762, S. aureus ATCC 6538 and MDR clinical isolates. The strains were cultured under aerobic conditions in BHI broth at 37° C. and incubated with peptide γ2 for 2 hours at 37° C. Various concentrations of peptide were used, ranging from 1 μM to 128 μM. Each test was conducted in triplicate with three independent cultures. The minimum inhibitory concentration (MIC) and the minimum bactericidal concentration (MBC) of the peptide were determined with a modified version of the Clinical and Laboratory Standards Institute broth microdilution assay, using a final inoculum concentration of 10^5 CFU/ml, as previously described (Scudiero O et al., Antimicrob Agents Chemother 2010; 54:2312-22; Scudiero O et al. Antimicrob Ag Chemother 2013; 57:1701-8).
as §1

Test [6] concerns P. aeruginosa MDR strain 2. Format: cell-based, Pseudomonas aeruginosa. How it is done:
as §2, §3, §1

Test [7] has as its system P. aeruginosa MDR strain 1. It counts as cell-based, Pseudomonas aeruginosa. As to the method:
as §2, §3, §1

Test [8] concerns MRSA strain 3 (intracellular, HeLa cells). The test can be described thus: Invasion and protection assay in HeLa cells. Format: cell-based, Staphylococcus aureus. The conditions noted are these: MRSA 3 strain in HeLa cells; 40 μM for 1 h; all times tested. How it is done:
The S. aureus ATCC 6538, MRSA strain 2 and MRSA strain 3 invasion assays were conducted as previously described (Colicchio R et al., Antimicrob Agents Chemother 2015; 59:7637-49; Spinosa M R et al. Infect Immun 2007; 75:3594-3603). HeLa cells (ATCC CCL-2) were used for the standard invasion and intracellular viability assays. The cells were cultured in DMEM with 2 mM L-glutamine. The cells were infected at a multiplicity of infection (MOI) of 50 for 1 h, washed twice with PBS1× to eliminate most of the extracellular bacteria, exposed to gentamicin (Sigma-Aldrich) to kill the remaining extracellular bacteria, and then destroyed with saponin (0.5%) to release the intracellular bacteria. To quantify the intracellular staphylococci released by the HeLa cells, the lysed cell suspension was plated on BHI agar, and the number of CFUs was counted the next day. When required, cells were re-incubated in the cell culture medium for various times (3 and 5 hours) after treatment with gentamicin. Treatment with gentamicin was conducted using 105 μM, a concentration 10 times higher than the MIC, for 30 minutes at 37° C. with 5% CO2. Cells were then washed thoroughly with PBS1× to remove the gentamicin and dead extracellular bacteria, and then lysed or re-incubated with medium. To evaluate the protection with the reduced peptide γ2 after treatment with gentamicin, the molecule was added to the sample at the final concentration of 40 µM for 1 hour, then washed twice with PBS1×, and finally destroyed with saponin. As the antibacterial activity of the reduced and oxidised peptide γ2 against S. aureus ATCC 6538 was very similar (Table 1), only the reduced form was used in the test. In all the experiments, the bacteria were centrifuged (60×g) on the cells to start the assay. The experiments were conducted in triplicate, and the data were expressed as mean±SD.

This is an account of results in patent publication US20240417435A1, “DEFENSIN-DERIVED PEPTIDE WITH ANTIBACTERIAL ACTIVITY ALSO AGAINST MULTI-ANTIBIOTIC-RESISTANT BACTERIA” (priority 2021, published 2024).

Molecules are shown by their SMILES. Values after ≈ are worked out from the molar mass of the structure shown. Where a SMILES comes first, the peptide text is derived from it.

For orientation: MBC means the lowest tested concentration that kills the bacteria rather than only halting them. For orientation: MIC means the lowest concentration found to suppress growth. As for `CC[C@H](C)[C@H](NC(=O)[C@H](CCC(N)=O)NC(=O)[C@H](CCCNC(=N)N)NC(=O)[C@H](CCCNC(=N)N)NC(=O)[C@H](CCCCN)NC(=O)[C@@H]1CCCN1C(=O)[C@H](CC(C)C)NC(=O)[C@H](CS)NC(C)=O)C(=O)NCC(=O)N[C@@H](CCCCN)C(=O)N[C@@H](CO)C(=O)N[C@@H](CO)C(=O)N[C@H](C(=O)N[C@@H](CCCNC(=N)N)C(=O)NCC(=O)N[C@@H](CCCNC(=N)N)C(=O)N[C@@H](CCCCN)C(=O)N[C@@H](CO)C(=O)N[C@@H](CS)C(=O)N[C@@H](CCCCN)C(=O)N[C@@H](CCCCN)C(N)=O)[C@@H](C)O` [Reduced peptide γ2] (Ac-CLPKRRQIGKSSTRGRKSCKK-NH2), the “growth in time-kill assay” value in the test on MRSA strains was “total reduction in growth”; in [1] it was “total reduction in growth”; in the test on P. aeruginosa ATCC 27853 [2] (peptide at 2×MIC), “no growth”; in [3] (peptide at 2×MIC), “no growth”; in test [4] it was “total reduction in growth”; in the test with ESBL strains of E. coli, “total reduction in growth”. Further, the “growth and viability in time-kill assay” value with P. aeruginosa ATCC 27853 [2] (peptide at MIC only) is “initial reduction in growth and viability in the first few hours of observation, whereas at longer times (5 and 7 h) a slight resumption in growth and viability”; in [3] (peptide at MIC only), “initial reduction in growth and viability in the first few hours of observation, whereas at longer times (5 and 7 h) a slight resumption in growth and viability”; in the test on A. baumannii MDR 2 (after 2 hours' treatment), “great reduction in growth and viability”; with A. baumannii MDR 2 (longer observation times, even at 4×MIC), “slight recovery of growth and viability”. Besides, the MBC against P. aeruginosa ATCC 27853 [5] turned out to be 1 µM (≈ 2.46 µg/mL); in [6], 1 µM (≈ 2.46 µg/mL); in [7] it was 64 µM (≈ 157 µg/mL). This compound displayed a minimum inhibitory concentration (MIC) in test [6] of 1 µM (≈ 2.46 µg/mL). For the same compound, the “viable intracellular bacteria (CFU)” value in test [8] is listed as “great reduction in viable intracellular bacteria”.
